Assay results: patent US9765056B2, “Indole and pyrrole compounds, a process for their preparation and pharmaceutical compositions containing them” (LES LABORATOIRES SERVIER, priority 2013, dated 2017)
Counter-ions that a name gives are not always drawn.

Tests used:
Bcl-2 protein = Bcl-2 protein (histag-Bcl-2, UniProtKB P10415) (Homo sapiens (Human), UniProt P10415); assay: Inhibition of Bcl-2 by the fluorescence polarisation technique; type: binding; conditions: fluorescence polarisation test; method A, or method B where underlined (underlining not visible); read-out: IC50 (nM) Bcl-2 FP
Sequence of Bcl-2 protein (P10415 whole entry): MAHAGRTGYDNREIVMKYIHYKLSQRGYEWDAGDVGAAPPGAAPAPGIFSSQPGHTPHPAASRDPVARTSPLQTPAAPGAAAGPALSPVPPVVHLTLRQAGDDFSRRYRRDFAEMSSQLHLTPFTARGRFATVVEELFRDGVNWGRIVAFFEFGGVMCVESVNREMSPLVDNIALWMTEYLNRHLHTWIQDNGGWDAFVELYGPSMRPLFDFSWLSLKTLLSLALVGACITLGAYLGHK
Excerpt: Inhibition of Bcl-2 by the fluorescence polarisation technique

[1] = tested on: RS4;11 leukaemia tumour line; assay: In vitro cytotoxicity, Microculture Tetrazolium Assay (MTT); type: cell-based; conditions: Homo sapiens; RS4;11 cells, 48 hours exposure
Procedure: The cytotoxicity studies were carried out on the RS4;11 leukaemia tumour line.
The cells are distributed onto microplates and exposed to the test compounds for 48 hours. The cell viability is then quantified by a colorimetric assay, the Microculture Tetrazolium Assay (Cancer Res., 1987, 47, 939-942).

SMILES	IC50 (Bcl-2 protein) [nM]	IC50 [1] [nM]
CCn1ccc2cc(N(C(=O)c3cn(-c4cc5c(cc4C(=O)N4Cc6ccccc6C[C@H]4CN4CCN(C)CC4)OCO5)c4ccccc34)c3ccc(O)cc3)ccc21 [Example 99, N-(1-Ethyl-1H-indol-5-yl)-N-(4-hydroxyphenyl)-1-(6-{[(3S)-3-[(4-methylpiperazin-1-yl)methyl]-3,4-dihydroisoquinolin-2(1H)-yl]carbonyl}-1,3-benzodioxol-5-yl)-1H-indole-3-carboxamide]	4.8	41.7
COc1cc(C(=O)N2Cc3ccccc3C[C@H]2CN2CCN(C)CC2)c(-n2cc(C(=O)N(c3ccccc3)c3ccc(O)cc3)c3ccccc32)cc1Cl [Example 167, 1-{5-Chloro-4-methoxy-2-[(3S)-3-[(4-methylpiperazin-1-yl)methyl]-1,2,3,4-tetrahydroisoquinoline-2-carbonyl]phenyl}-N-(4-hydroxyphenyl)-N-phenyl-1H-indole-3-carboxamide]	37.4	984
O=C(c1cn(-c2cc3c(cc2C(=O)N2Cc4ccccc4C[C@H]2CN2CCOCC2)OCO3)c2c1CCCC2)N(c1ccccc1)c1ccc(O)cc1 [Example 113, N-(4-Hydroxyphenyl)-1-(6-{[(3S)-3-(morpholin-4-ylmethyl)-3,4-dihydroisoquinolin-2(1H)-yl]carbonyl}-1,3-benzodioxol-5-yl)-N-phenyl-4,5,6,7-tetrahydro-1H-indole-3-carboxamide hydrochloride]	19.2	203
Cc1ccc(N(C(=O)c2cc(C)n(-c3cc(Cl)ccc3C(=O)N3Cc4ccccc4C[C@H]3CN3CCN(C)CC3)c2)c2ccc(O)cc2)cc1 [Example 91, 1-(5-Chloro-2-{[(3S)-3-[(4-methylpiperazin-1-yl)methyl]-3,4-dihydroisoquinolin-2(1H)-yl]carbonyl}phenyl)-N-(4-hydroxyphenyl)-5-methyl-N-(4-methylphenyl)-1H-pyrrole-3-carboxamide]	5.3	172
O=C(c1cn(-c2cc3c(cc2C(=O)N2Cc4ccccc4C[C@H]2CN2CCCCC2)OCO3)c2ccccc12)N(c1ccccc1)c1ccc(O)cc1 [Example 174, N-(4-Hydroxyphenyl)-N-phenyl-1-{6-[(3S)-3-(piperidin-1-ylmethyl)-1,2,3,4-tetrahydroisoquinoline-2-carbonyl]-2H-1,3-benzodioxol-5-yl}-1H-indole-3-carboxamide]	41.2	402
NC[C@@H]1Cc2ccccc2CN1C(=O)c1cc(N)ccc1-n1nc(C(=O)N(c2ccccc2)c2ccccc2)c2ccccc21 [Example 138, 1-{4-Amino-2-[(3S)-3-(aminomethyl)-1,2,3,4-tetrahydroisoquinoline-2-carbonyl]phenyl}-N,N-diphenyl-1H-indazole-3-carboxamide]	52.2	2020
Cc1cc(C(=O)N(c2ccccc2)c2ccc(O)cc2)cn1-c1cc(F)c(F)cc1C(=O)N1Cc2ccccc2C[C@H]1CN1CCN(C)CC1 [Example 20, 1-(4,5-Difluoro-2-{[(3S)-3-[(4-methylpiperazin-1-yl)methyl]-3,4-dihydroisoquinolin-2(1H)-yl]carbonyl}phenyl)-N-(4-hydroxyphenyl)-5-methyl-N-phenyl-1H-pyrrole-3-carboxamide]	74.3	900
Cc1cc(C(=O)N(c2ccccc2)c2ccc(O)cc2)cn1-c1cc(F)ccc1C(=O)N1Cc2ccccc2C[C@H]1CN1CCN(C)CC1 [Example 21, 1-(5-fluoro-2-{[(3S)-3-[(4-methylpiperazin-1-yl)methyl]-3,4-dihydroisoquinolin-2(1H)-yl]carbonyl}phenyl)-N-(4-hydroxyphenyl)-5-methyl-N-phenyl-1H-pyrrole-3-carboxamide]	24.6	256
CN(C)c1ccc(-n2nc(C(=O)N(c3ccccc3)c3ccccc3)c3ccccc32)c(C(=O)N2Cc3ccccc3C[C@H]2CN)c1 [Example 141, 1-{2-[(3S)-3-(Aminomethyl)-1,2,3,4-tetrahydroisoquinoline-2-carbonyl]-4-(dimethylamino)phenyl}-N,N-diphenyl-1H-indazole-3-carboxamide]	56.7	2280
Cc1cc(C(=O)N(c2ccc(O)cc2)c2ccc3[nH]ccc3c2)cn1-c1cc(Br)ccc1C(=O)N1Cc2ccccc2C[C@H]1CN1CCN(C2CCCC2)CC1 [Example 80, 1-(5-Bromo-2-{[(3S)-3-[(4-cyclopentylpiperazin-1-yl)methyl]-3,4-dihydroisoquinolin-2(1H)-yl]carbonyl}phenyl)-N-(4-hydroxyphenyl)-N-(1H-indol-5-yl)-5-methyl-1H-pyrrole-3-carboxamide]	6.8	120
CN1CCN(C[C@@H]2Cc3ccccc3CN2C(=O)c2cc3c(cc2-n2cc(C(=O)N(c4ccc(O)cc4)c4ccc5sccc5c4)c4ccccc42)OCO3)CC1 [Example 43, N-(1-Benzothiophen-5-yl)-N-(4-hydroxyphenyl)-1-(6-{[(3S)-3-[(4-methylpiperazin-1-yl)methyl]-3,4-dihydroisoquinolin-2(1H)-yl]carbonyl}-1,3-benzodioxol-5-yl)-1H-indole-3-carboxamide]	7.2	101
CN1CCN(C[C@@H]2Cc3ccccc3CN2C(=O)c2ccc(Br)cc2-n2cc(C(=O)N(c3ccc(O)cc3)c3ccc(Cl)cc3)c3ccccc32)CC1 [Example 59, 1-(5-Bromo-2-{[(3S)-3-[(4-methylpiperazin-1-yl)methyl]-3,4-dihydroisoquinolin-2(1H)-yl]carbonyl}phenyl)-N-(4-chlorophenyl)-N-(4-hydroxyphenyl)-1H-indole-3-carboxamide]	19.2	206
COc1cc(-n2nc(C(=O)N(c3ccccc3)c3ccccc3)c3ccccc32)c(C(=O)N2Cc3ccccc3C[C@H]2CN)cc1N [Example 152, 1-{4-Amino-2-[(3S)-3-(aminomethyl)-1,2,3,4-tetrahydroisoquinoline-2-carbonyl]-5-methoxyphenyl}-N,N-diphenyl-1H-indazole-3-carboxamide]	218	2160
CN1CCN(C[C@@H]2Cc3ccccc3CN2C(=O)c2cc3c(cc2-n2cc(C(=O)N(c4ccccc4)c4ccc(O)cc4)c4ccccc42)OC[C@H](COCc2ccccc2)O3)CC1 [Example 188, 1-[(2S)-2-[(Benzyloxy)methyl]-7-[(3S)-3-[(4-methylpiperazin-1-yl)-methyl]-1,2,3,4-tetrahydroisoquinoline-2-carbonyl]-2,3-dihydro-1,4-benzodioxin-6-yl]-N-(4-hydroxyphenyl)-N-phenyl-1H-indole-3-carboxamide]	16.8	68
COc1cc(-n2cc(C(=O)N(c3ccccc3)c3ccc(O)cc3)c3ccccc32)c(C(=O)N2Cc3ccccc3C[C@H]2CN2CCCCC2)cc1O [Example 176, 1-{4-Hydroxy-5-methoxy-2-[(3S)-3-(piperidin-1-ylmethyl)-1,2,3,4-tetrahydroisoquinoline-2-carbonyl]phenyl}-N-(4-hydroxyphenyl)-N-phenyl-1H-indole-3-carboxamide hydrochloride]	6.2	225
CN1CCN(C[C@@H]2Cc3ccccc3CN2C(=O)c2cc3c(cc2-n2cc(C(=O)N(c4ccc(O)cc4)c4ccc(Cl)cc4)c4ccccc42)OCO3)CC1 [Example 31, N-(4-Chlorophenyl)-N-(4-hydroxyphenyl)-1-(6-{[(3S)-3-[(4-methylpiperazin-1-yl)methyl]-3,4-dihydroisoquinolin-2(1H)-yl]carbonyl}-1,3-benzodioxol-5-yl)-1H-indole-3-carboxamide]	5.5	71.4
CN1CCN(C[C@@H]2Cc3ccccc3CN2C(=O)c2cc3c(cc2-n2cc(C(=O)N(c4ccccc4)c4ccc(O)c(F)c4)c4ccccc42)OCO3)CC1 [Example 34, N-(3-Fluoro-4-hydroxyphenyl)-1-(6-{[(3S)-3-[(4-methylpiperazin-1-yl)methyl]-3,4-dihydroisoquinolin-2(1H)-yl]carbonyl}-1,3-benzodioxol-5-yl)-N-phenyl-1H-indole-3-carboxamide]	7.7	133
COc1ccc(C(=O)N2Cc3ccccc3C[C@H]2CN2CCCCC2)c(-n2cc(C(=O)N(c3ccccc3)c3ccc(O)cc3)c3ccccc32)c1 [Example 169, N-(4-Hydroxyphenyl)-1-{5-methoxy-2-[(3S)-3-(piperidin-1-ylmethyl)-1,2,3,4-tetrahydroisoquinoline-2-carbonyl]phenyl}-N-phenyl-1H-indole-3-carboxamide hydrochloride]	108	854
Cc1cc(C(=O)N(c2ccccc2)c2ccc(O)cc2)cn1-c1cc2c(cc1C(=O)N1Cc3ccccc3C[C@H]1CN1CCN(C)CC1)OCO2 [Example 24, N-(4-Hydroxyphenyl)-5-methyl-1-(6-{[(3S)-3-[(4-methylpiperazin-1-yl)methyl]-3,4-dihydroisoquinolin-2(1H)-yl]carbonyl}-1,3-benzodioxol-5-yl)-N-phenyl-1H-pyrrole-3-carboxamide]	15.6	140
NC[C@@H]1Cc2ccccc2CN1C(=O)c1ccccc1-n1nc(C(=O)N(c2ccccc2)c2ccccc2)c2ccc(C(=O)O)cc21 [Example 133, 1-{2-[(3S)-3-(Aminomethyl)-1,2,3,4-tetrahydroisoquinoline-2-carbonyl]-phenyl}-3-(diphenylcarbamoyl)-1H-indazole-6-carboxylic acid]	841	–
CN1CCN(C[C@@H]2Cc3ccccc3CN2C(=O)c2cc(O)c(O)cc2-n2cc(C(=O)N(c3ccccc3)c3ccc(O)cc3)c3ccccc32)CC1 [Example 183, 1-{4,5-Dihydroxy-2-[(3S)-3-[(4-methylpiperazin-1-yl)methyl]-1,2,3,4-tetrahydroisoquinoline-2-carbonyl]phenyl}-N-(4-hydroxyphenyl)-N-phenyl-1H-indole-3-carboxamide]	8.3	–
